Laboratory results taken from patent publication US10597388B2, “Pyridazinone herbicides” (FMC CORPORATION, priority 2014, dated 2020).

Tests used:
Test in all cases: Test D controlled growth environment herbicide test, pre- and postemergence
Type in all cases: in vivo
[1] = system: canarygrass (Phalaris minor)
In short: (§1)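 Pre-emergence: seeds sown in silt loam soil were sprayed with compound in a non-phytotoxic solvent mix containing surfactant. Post-emergence: plants at 2 to 18 cm (1- to 4-leaf stage) in peat moss/vermiculite medium got the same formulation. Visual 0–100 rating versus controls after 14 to 21 d.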

[2] = system: chickweed (common chickweed, Stellaria media)
In short: as §1

kochia (Kochia scoparia) = system: kochia (Kochia scoparia)
In short: as §1

[3] = system: windgrass (Apera spica-venti)
In short: as §1

[4] = system: bromegrass, downy (downy bromegrass, Bromus tectorum)
In short: as §1

[5] = system: buckwheat, wild (wild buckwheat, Polygonum convolvulus)
In short: as §1

[6] = system: oat, wild (wild oat, Avena fatua)
In short: as §1

[7] = system: barley, winter (winter barley, Hordeum vulgare)
In short: as §1

[8] = system: galium (catchweed bedstraw, Galium aparine)
In short: as §1

[9] = system: field violet (Viola arvensis)
In short: as §1

[10] = system: pigweed (Amaranthus retroflexus)
In short: as §1

[11] = system: radish, wild (wild radish, Raphanus raphanistrum)
In short: as §1

[12] = system: Russian thistle (Salsola kali)
In short: as §1

[13] = Postemergence, 31 g ai/ha, scale 0 to 100 (0 no effect, 100 complete control)
[14] = Postemergence, 125 g ai/ha, visual rating on scale 0 (no effect) to 100 (complete control), 14 to 21 d
[15] = Postemergence, 250 g ai/ha, scale 0 to 100 (0 no effect, 100 complete control)
[16] = Preemergence, 125 g ai/ha, scale 0 to 100 (0 no effect, 100 complete control)
[17] = Preemergence, 250 g ai/ha, scale 0 to 100 (0 no effect, 100 complete control)
[18] = postemergence, 62 g ai/ha, scale 0 to 100, 0 no effect, 100 complete control
[19] = Preemergence, 62 g ai/ha, scale 0 to 100 (0 no effect, 100 complete control)

## CC(=O)Oc1c(C)nn(C)c(=O)c1-c1c(C)cc(C)c2ccccc12 [Compound 153]
[1]; [13]
  Canarygrass plant response rating: 75
[1]; [14]
  Plant response rating, Canarygrass: 80
[1]; [15]
  Plant response rating, Canarygrass: 85
[1]; Preemergence, 31 g ai/ha
  Plant response rating (scale of 0 to 100), Canarygrass: 85
[1]; Preemergence, 62 g ai/ha
  Plant response rating (scale of 0 to 100), Canarygrass: 90
[1]; [16]
  Plant response rating, Canarygrass: 95
[1]; [17]
  Plant response rating, Canarygrass: 100
[1]; [18]
  Plant response rating, Canarygrass: 75
[2]; [13]
  Chickweed plant response rating: 80
[2]; [14]
  Plant response rating, Chickweed: 85
[2]; [15]
  Plant response rating, Chickweed: 100
[2]; Preemergence, 31 g ai/ha
  Plant response rating (scale of 0 to 100), Chickweed: 98
[2]; Preemergence, 62 g ai/ha
  Plant response rating (scale of 0 to 100), Chickweed: 100
[2]; [16]
  Plant response rating, Chickweed: 100
[2]; [17]
  Plant response rating, Chickweed: 100
[2]; [18]
  Plant response rating, Chickweed: 85
Kochia (Kochia scoparia); [13]
  Kochia plant response rating: 20
Kochia (Kochia scoparia); [14]
  Plant response rating, Kochia: 30
Kochia (Kochia scoparia); [15]
  Plant response rating, Kochia: 35
Kochia (Kochia scoparia); Preemergence, 31 g ai/ha
  Plant response rating (scale of 0 to 100), Kochia: 20
Kochia (Kochia scoparia); Preemergence, 62 g ai/ha
  Plant response rating (scale of 0 to 100), Kochia: 50
Kochia (Kochia scoparia); [16]
  Plant response rating, Kochia: 25
Kochia (Kochia scoparia); [17]
  Plant response rating, Kochia: 70
Kochia (Kochia scoparia); [18]
  Plant response rating, Kochia: 15
[3]; [13]
  Windgrass plant response rating: 25
[3]; [14]
  Plant response rating, Windgrass: 65
[3]; [15]
  Plant response rating, Windgrass: 75
[3]; Preemergence, 31 g ai/ha
  Plant response rating (scale of 0 to 100), Windgrass: 75
[3]; Preemergence, 62 g ai/ha
  Plant response rating (scale of 0 to 100), Windgrass: 80
[3]; [16]
  Plant response rating, Windgrass: 80
[3]; [17]
  Plant response rating, Windgrass: 95
[3]; [18]
  Plant response rating, Windgrass: 30
[4]; [13]
  Bromegrass, Downy plant response rating: 25
[4]; [14]
  Plant response rating, Bromegrass, Downy: 65
[4]; [15]
  Plant response rating, Bromegrass, Downy: 70
[4]; Preemergence, 31 g ai/ha
  Plant response rating (scale of 0 to 100), Bromegrass, Downy: 75
[4]; [19]
  Plant response rating, Bromegrass, Downy: 75
[4]; [16]
  Plant response rating, Bromegrass, Downy: 85
[4]; [17]
  Plant response rating, Bromegrass, Downy: 95
[4]; [18]
  Plant response rating, Bromegrass, Downy: 35
[5]; [13]
  Buckwheat, Wild plant response rating: 95
[5]; [14]
  Plant response rating, Buckwheat, Wild: 100
[5]; [15]
  Plant response rating, Buckwheat, Wild: 100
[5]; Preemergence, 31 g ai/ha
  Plant response rating (scale of 0 to 100), Buckwheat, Wild: 40
[5]; [19]
  Plant response rating, Buckwheat, Wild: 60
[5]; [16]
  Plant response rating, Buckwheat, Wild: 85
[5]; [17]
  Plant response rating, Buckwheat, Wild: 85
[5]; [18]
  Plant response rating, Buckwheat, Wild: 95
[6]; [13]
  Oat, Wild plant response rating: 85
[6]; [14]
  Plant response rating, Oat, Wild: 90
[6]; [15]
  Plant response rating, Oat, Wild: 98
[6]; Preemergence, 31 g ai/ha
  Plant response rating (scale of 0 to 100), Oat, Wild: 80
[6]; Preemergence, 62 g ai/ha
  Plant response rating (scale of 0 to 100), Oat, Wild: 95
[6]; [16]
  Plant response rating, Oat, Wild: 98
[6]; [17]
  Plant response rating, Oat, Wild: 98
[6]; [18]
  Plant response rating, Oat, Wild: 85
[7]; [13]
  Barley, Winter plant response rating: 0
[7]; [14]
  Plant response rating, Barley, Winter: 10
[7]; [15]
  Plant response rating, Barley, Winter: 25
[7]; Preemergence, 31 g ai/ha
  Plant response rating (scale of 0 to 100), Barley, Winter: 0
[7]; [19]
  Plant response rating, Barley, Winter: 10
[7]; [16]
  Plant response rating, Barley, Winter: 25
[7]; [17]
  Plant response rating, Barley, Winter: 40
[7]; [18]
  Plant response rating, Barley, Winter: 5
[8]; [13]
  Galium plant response rating: 100
[8]; [14]
  Plant response rating, Galium: 100
[8]; [15]
  Plant response rating, Galium: 100
[8]; Preemergence, 31 g ai/ha
  Plant response rating (scale of 0 to 100), Galium: 85
[8]; Preemergence, 62 g ai/ha
  Plant response rating (scale of 0 to 100), Galium: 95
[8]; [16]
  Plant response rating, Galium: 95
[8]; [17]
  Plant response rating, Galium: 98
[8]; [18]
  Plant response rating, Galium: 100
[9]; [13]
  Field Violet plant response rating: 85
[9]; [14]
  Plant response rating, Field Violet: 95
[9]; [15]
  Plant response rating, Field Violet: 100
[9]; Preemergence, 31 g ai/ha
  Plant response rating (scale of 0 to 100), Field Violet: 100
[9]; Preemergence, 62 g ai/ha
  Plant response rating (scale of 0 to 100), Field Violet: 100
[9]; [16]
  Plant response rating, Field Violet: 100
[9]; [17]
  Plant response rating, Field Violet: 100
[9]; [18]
  Plant response rating, Field Violet: 90
[10]; [13]
  Pigweed plant response rating: 80
[10]; [14]
  Plant response rating, Pigweed: 80
[10]; [15]
  Plant response rating, Pigweed: 85
[10]; Preemergence, 31 g ai/ha
  Plant response rating (scale of 0 to 100), Pigweed: 100
[10]; Preemergence, 62 g ai/ha
  Plant response rating (scale of 0 to 100), Pigweed: 100
[10]; [16]
  Plant response rating, Pigweed: 100
[10]; [17]
  Plant response rating, Pigweed: 100
[10]; [18]
  Plant response rating, Pigweed: 75
[11]; [13]
  Radish, Wild plant response rating: 80
[11]; [14]
  Plant response rating, Radish, Wild: 100
[11]; [15]
  Plant response rating, Radish, Wild: 100
[11]; Preemergence, 31 g ai/ha
  Plant response rating (scale of 0 to 100), Radish, Wild: 80
[11]; Preemergence, 62 g ai/ha
  Plant response rating (scale of 0 to 100), Radish, Wild: 98
[11]; [16]
  Plant response rating, Radish, Wild: 98
[11]; [17]
  Plant response rating, Radish, Wild: 100
[11]; [18]
  Plant response rating, Radish, Wild: 85
[12]; [13]
  Russian Thistle plant response rating: 25
[12]; [14]
  Plant response rating, Russian Thistle: 45
[12]; [15]
  Plant response rating, Russian Thistle: 55
[12]; Preemergence, 31 g ai/ha
  Plant response rating (scale of 0 to 100), Russian Thistle: 0
[12]; Preemergence, 62 g ai/ha
  Plant response rating (scale of 0 to 100), Russian Thistle: 15
[12]; [16]
  Plant response rating, Russian Thistle: 60
[12]; [17]
  Plant response rating, Russian Thistle: 100
[12]; [18]
  Plant response rating, Russian Thistle: 20
